Here are results for three compounds from US20110059909A1, “METHODS FOR TREATING INFLAMMATORY DISORDERS” (priority 2004, published 2011).

Data set [1] concerns iNOS. As to the kind of experiment: iNOS mRNA (RT-PCR) and protein (immunoblot) in LPS/IFNγ-stimulated primary astrocytes. It counts as cell-based, rat. Conditions: for LPS/IFNγ-induced iNOS mRNA and protein levels: primary astrocytes, LPS/IFNγ (1 μg/ml; 10 U/ml), mRNA 6 h, protein 24 h. How it is done: (§1) Primary astrocyte-enriched cultures were prepared from the whole cortex of one day old Sprague-Dawley rats as described earlier (Pahan et al., 1998b). Briefly, the cortex was rapidly dissected in ice-cold calcium/magnesium free Hanks Balanced Salt Solution (HBSS) (Gibco, Grand Island, N.Y.) at pH 7.4 as described previously (Won et al., 2001). The tissue was then minced, incubated in HBSS containing trypsin (2 mg/ml) for 20 min and washed twice in plating medium containing 10% FBS and 10 μg/ml gentamicin, and then disrupted by triturating through a Pasteur pipette following which cells were seeded in 75-cm^2 culture flasks (Falcon, Franklin, N.J.). After incubation at 37° C. in 5% CO2 for 1 day, the medium was completely changed to the culture medium (DMEM containing 5% FBS and 10 μg/ml gentamicin). The cultures received half exchanges with fresh medium twice a week. After 14-15 days the cells were shaken for at least 24 h on an orbital shaker to remove the microglia and then seeded on multi-well tissue culture dishes. The cells were incubated with serum-free DMEM for 24 h prior to the incubation with drugs.
(§2) For iNOS protein, the cells were washed with cold Tris buffered saline (TBS; 20 mM Trizma base, and 137 mM NaCl, pH 7.5), lysed in 1×SDS sample loading buffer (62.5 mM Trizma base, 2% w/v SDS, 10% glycerol), following sonication and centrifugation at 15,000×g for 5 min, the supernatant was used for the iNOS western immunoblot assay. The protein concentration of samples was determined with the detergent compatible protein assay reagent (Bio-Rad Laboratories, CA) using bovine serum albumin (BSA) as the standard. Sample was boiled for 3 min with 0.1 volumes of 10% β-mercaptoethanol and 0.5% bromophenol blue mix. Fifty μg of total cellular protein was resolved by electrophoresis on 8 or 12% polyacrylamide gels, electro-transferred to polyvinylidene difluoride (PVDF) filter and blocked with Tween 20 containing Tris-buffered saline (TBST; 10 mM Trizma base-pH 7.4, 1% Tween 20, and 150 mM NaCl) with 5% skim milk. After incubation with antiserum against iNOS (BD PharMingen, CA), rat GalT-2 (Abjent Inc., CA), H-Ras (Upstate Biotechnology, CA), GFAP (Santa Cruz Biotech, CA), or phospho-specific ERK1/2 (Cell signaling Tech Inc., MA), or pIκ-B (Signal Transduction), in PVDF buffer for 2 h at room temperature, the filters were washed 3 times with TBST buffer and then incubated with horseradish peroxidase conjugated anti-rabbit or mouse IgG for 1 h. The membranes were detected by autoradiography using ECL-plus (Amersham Pharmacia Biotech) after washing with TBST buffer.
5 μg total RNA was treated with 2 U DNAse I (bovine pancreas, Sigma) for 15 min at room temperature in 18 μl volume containing 1×PCR buffer and 2 mM MgCl2. It was then inactivated by incubation with 2 μl of 25 mM EDTA at 65° C. for 15 min. 2 μl of random primers were added and annealed to the RNA according to the manufacturer's protocol. cDNA was synthesized in a 50 μl reaction containing 5 μg of total RNA and 50-100 U reverse transcriptase by incubating the tubes at 42° C. for 60 min. PCR amplification was conducted in 25 μl of reaction mixture with 1.0 μl of cDNA, […] of each primer and under the manufacturer's Taq polymerase conditions (Takara, Takara Shuzo Co. Ltd, Japan). The sequence of primers used for PCR amplification are as follows; iNOS, (Forward-5′ […] 3′, SEQ ID NO:3; Reverse-5′ […] 3′, SEQ ID NO:4), GalT-2 (Forward-5′ tggtacaagctagaggc 3′, SEQ ID NO:5; Reverse-5′ gcatggcacattgaa C-3′, SEQ ID NO:6), GAPDH (Forward-5′ […] 3′, SEQ ID NO:7; Reverse-5′ cttcacgaagttgtcattgagggca3′, SEQ ID NO:8), TNFα (Forward-5′ […] g-3′, SEQ ID NO:9; Reverse-5′[…]-3′, SEQ ID NO:10) and IL-1β (Forward-5′[…]-3′, SEQ ID NO:11; reverse-5′[…]-3′, SEQ ID NO:12).

Data set [2] concerns rat primary astrocytes. As to the kind of experiment: BrdU incorporation assay, proliferation of primary astrocytes. Conditions: for TNFα-induced astrocyte proliferation: pretreated 0.5 h (AS: 48 h after transfection), TNFα 1 ng/ml 18 h. It counts as cell-based. The protocol:
as §1
Proliferation of primary astrocytes was assayed by using the Cell proliferation ELISA, BrdU colorimetric assay kit (Roche, Germany) according to manufacturer's protocol. Briefly, cells were seeded in 96 well plates in quadruplicate and following overnight serum starvation were stimulated with mitogenic stimulants. 2 h before termination of proliferation assay, BrdU (10 μM) was added to each well following which cells were fixed and levels of incorporated BrdU were assayed by using a conjugated anti-BrdU enzyme. Colorimetric analysis was done by measuring absorbance at 370 nm using a spectramax MAX 190 (Molecular devices) multi-well plate reading spectrophotometer.

For data set [3], the system named is GFAP. As to the kind of experiment: GFAP mRNA (real time PCR) and protein (immunoblot) in TNFα-stimulated primary astrocytes. The class given is cell-based, rat. Conditions: for TNFα-induced GFAP mRNA and protein expression: TNFα 1 ng/ml, mRNA 8 h, protein 18 h. The protocol: as §2
In data set [4] the test system is rat primary astrocytes. As to the kind of experiment: Assay for NO production (nitrite, Griess reagent) in LPS/IFNγ-stimulated primary astrocytes. The class given is cell-based. The note with it: for LPS/IFNγ-induced NO production: primary astrocytes, LPS/IFNγ (1 μg/ml; 10 U/ml), NO at 24 h. The protocol:
as §1
Cells were cultured in 12-well plastic tissue culture plates. Following appropriate treatment, production of NO was determined by an assay of the culture supernatant for nitrite (Green et al., 1982). Briefly, 100 μl of culture supernatant was allowed to react with 100 μl of Griess reagent. The optical density of the assay samples was measured spectrophotometrically at 570 nm. Nitrite concentrations were calculated from a standard curve derived from the reaction of NaNO2 in fresh media.

In the case of `CCCCCCCCCC(=O)NC(CN1CCOCC1)C(O)c1ccccc1.Cl` [PDMP, D-threo-1-Phenyl-2-decanoylamino-3-morpholino-1-propanol.HCl], in data set [1], the “LPS/IFNγ-induced iNOS mRNA and protein levels” value is listed as “dose dependent decrease”. Moreover, in data set [2] (BrdU incorporation), the TNFα-induced astrocyte proliferation entry is reported as “dose dependently inhibited”. The “TNFα-induced GFAP mRNA and protein expression” value in data set [3] is reported as “inhibited”. Besides, the “LPS/IFNγ-induced NO production” value in data set [4] is “dose dependent decrease”.

“AS GalT-2 oligonucleotides: 20-mer antisense oligonucleotide 5′-CGCTTGAGCGCAGACATCTT-3′, SEQ ID NO:1, against rat lactosylceramide synthase (GalT-2) (antisense CGCTTGAGCGCAGACATCTT; chemistry not given here)”: the “LPS/IFNγ-induced iNOS mRNA and protein levels” value in data set [1] is “decreased”. For the same compound, the TNFα-induced astrocyte proliferation entry in data set [2] (BrdU incorporation) was “decreased”. Besides, the “TNFα-induced GFAP mRNA and protein expression” value in data set [3] is listed as “diminished”. Also, the “LPS/IFNγ-induced NO production” value in data set [4] is listed as “decreased”.

Take Lactosylceramide [LacCer]: the “Reversal of NAC- and PDTC-mediated inhibition of LPS/IFNγ-stimulated iNOS gene expression” value in data set [1] (NAC 10 mM or PDTC 100 μM, exogenous LacCer) is on record as “not reversed”. Besides, in data set [1] (PDMP 50 μM plus LacCer 5 and 10 μM, 0.5 h before LPS/IFNγ), the “Reversal of PDMP-mediated inhibition of iNOS gene expression” value is recorded as “blunted”. In addition, the “Effect on PD98059-mediated inhibition of iNOS gene expression” value in data set [1] (exogenous LacCer, LPS/IFNγ) is given as “no effect”. The “Reversal of LY-mediated inhibition of TNFα-induced proliferation” value in data set [2] (LY 30 μM plus exogenous lipid) is on record as “effectively blunted”. For the same compound, the “Reversal of PDMP-mediated inhibition of TNFα-induced proliferation” value in data set [2] (PDMP 25 μM plus exogenous lipid) was “able to bypass”. The “Reversal of GalT-2 AS-mediated inhibition of TNFα-induced proliferation” value in data set [2] (exogenous LacCer) is reported as “bypassed the inhibition”. In data set [2] (exogenous lipid), the “Reversal of DMS-mediated inhibition of TNFα-induced proliferation” value is “reversed” and the “Reversal of PD98059-mediated inhibition of TNFα-induced proliferation” value is recorded as “could not be reversed”. The “Proliferation of astrocytes induced by the substance itself” value in data set [2] (increasing doses (1, 5 and 10 μM for GSL), 18 h, BrdU incorporation) is recorded as “induced proliferation”. In addition, the “Reversal of PDMP-mediated inhibition of TNFα-induced GFAP expression” value in data set [3] (PDMP 25 μM plus LacCer 5 μM) was “reversed”. For the same compound, in data set [3] (exogenous LacCer), the “Reversal of AS-mediated inhibition of GFAP expression” value is “blunted” and the “Reversal of LY-mediated inhibition of TNFα-mediated GFAP expression” value is “effectively bypassed”. The “Effect on PD98059-mediated inhibition of GFAP expression” value in data set [3] (exogenous LacCer, TNFα) was “no effect”. Besides, the “Reversal of DMS-mediated inhibition of TNFα-induced GFAP expression” value in data set [3] (exogenous lipid) is “reversed”. Besides, the “Reversal of PDMP-mediated inhibition of LPS/IFNγ-induced NO production” value in data set [4] (PDMP 50 μM plus exogenous glycosphingolipid 5 and 10 μM, 0.5 h before LPS/IFNγ) is “blunted”. In data set [4] (exogenous LacCer, LPS/IFNγ), the “Reversal of GalT-2 AS-mediated inhibition of NO production and iNOS levels” value is “reversed the inhibition”.
